The text below walks through data of US9290777B2, “Putative cytokinin receptor and methods for use thereof” (NATIONAL UNIVERSITY OF SINGAPORE, priority 2007, dated 2016).

Entries after “also recorded” stand apart in the source; their conditions may differ.

For data set [1], the system named is tobacco genome in suspension cultures. The conditions noted are these: relative to untreated material; cited from earlier work.
Data set [2] deals with T1, purified TAP-HOG1 (Arabidopsis thaliana, UniProt O23255).
T1 construct: Protein A (ProtA part of the TAP tag, TEV site between ProtA and CBP) (N, cleaved yes); made in house; host or cells: transgenic Arabidopsis thaliana harbouring 35S:TAP-HOG1
Kind of data set: biochemical. Type of data set: binding. As for the experimental part: (§1) Cytokinin binding affinity and thermodynamic analysis of the interaction between HOG1 and cytokinins was examined by ITC (MCSITC, Microcal, Northampton, USA). Three naturally occurring cytokinins (zeatin, benzyladenine and isopentenyl adenine) and thidiazuron (an urea-derived synthetic cytokinin) were used. Additionally, adenosine and NAD were used as control molecules to verify the binding specificity of HOG1 to cytokinins. Data were analyzed by MICROCAL ORIGIN version 2.9 using the best-fit, nonlinear least-squares method for one binding site. The binding stoichiometry (n), and association constant (KA) were calculated from the fitted curves. Subsequently, KD was calculated as 1/KA. Raw heat data were corrected to baseline drift obtained from injections of 0.1 μM purified AHP1 into the sample cell containing 2 μM purified TAP-HOG1. Binding isotherms were created by plotting the heat peak areas against the molar ratio of AHP1 added to HOG1.
Cytokinin binding affinity and thermodynamic analysis of the interaction between HOG1 and cytokinins was examined by ITC (MCSITC, Microcal, Northampton, USA). TAP-HOG1 fusion protein was purified using published protocols (Forler et al. supra) from transgenic Arabidopsis plants harboring the 35S:TAP-HOG1 construct. 0.01 μM benzyladenine (a naturally occurring cytokinin) and 0.1 μM of purified TAP-HOG1 protein were used for each ITC assay with 25 injections (each injection of 2 μl at […] intervals at 37° C.). Data were analyzed with MICROCAL ORIGIN version 2.9 using the best-fit, nonlinear least-squares method for one binding site. The binding stoichiometry (n), and association constant (KA) were calculated from the fitted curves. Subsequently, KD was calculated as 1/KA.

Data set [3] has as its system HOG1 anti-sense suppression (AS) line 12 plants. Kind of data set: Exogenous cytokinin spray on HOG1 anti-sense suppression line, phenotype. Type of data set: in vivo, Arabidopsis thaliana. The note with it: 0.01 μM spray on alternate days over four weeks. How it is done: Three individual seedlings of OE line 6 and AS line 12 were sprayed on alternate days with zeatin or kinetin (0.01 μM), over a period of four weeks. Two WT plants were similarly treated for comparison. […] E) The control OE lines bolt at 4 leaf stage. B) and D) Three individuals of OE line 6 sprayed with zeatin and kinetin respectively, show bolting only after they have reached the 6-7 leaf stage. […] (Note that panels A, B, E and F are in the main FIG. 2 as panels G, H, I and J, and these are included here for ease of comparison only).

Data set [4] concerns the target T2, purified TAP-HOG1 (Arabidopsis thaliana, UniProt O23255).
T2 construct: Protein A (ProtA part of the TAP tag, TEV site between ProtA and CBP) (N, cleaved yes); made in house; host or cells: TAP-HOG1: transgenic Arabidopsis thaliana (35S:TAP-HOG1); AHP1: E. coli BL21 (PET32EK/LIC)
T2 sequence (O23255 whole entry, looked up): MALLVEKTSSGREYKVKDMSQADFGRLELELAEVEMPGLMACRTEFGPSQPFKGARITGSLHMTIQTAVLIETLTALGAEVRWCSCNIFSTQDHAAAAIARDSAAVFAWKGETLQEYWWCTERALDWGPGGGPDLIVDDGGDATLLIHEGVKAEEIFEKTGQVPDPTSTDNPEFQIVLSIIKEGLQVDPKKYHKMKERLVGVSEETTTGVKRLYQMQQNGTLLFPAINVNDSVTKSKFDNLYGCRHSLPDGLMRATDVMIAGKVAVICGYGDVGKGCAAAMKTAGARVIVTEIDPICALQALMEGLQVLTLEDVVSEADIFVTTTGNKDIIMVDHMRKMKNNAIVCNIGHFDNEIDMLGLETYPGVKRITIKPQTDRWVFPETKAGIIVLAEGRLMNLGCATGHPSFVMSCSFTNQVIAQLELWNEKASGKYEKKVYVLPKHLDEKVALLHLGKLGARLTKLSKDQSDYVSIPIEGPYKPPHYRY
Kind of data set: TAP-HOG1 and AHP1 interaction by ITC. In kind it is binding. The note with it: recombinant AHP1 injected into purified TAP-HOG1, read-out: KD (dissociation constant). How it is done: as §1
TAP-HOG1 protein complex was purified using the ProtA and CBP tags as described before in Forler et al. (supra). For ProtA pulldown, IgG Sepharose beads (Amersham Biosciences #17-0969-01) and for CBP pulldown Calmodulin affinity resin (Stratagene #214303-52) were used. The purified protein was subjected to SDS-PAGE and blotted to PVDF membranes for Western blot analysis using standard protocols. […]

Data set [5] has as its target T3, recombinant AHP1 with six-His and thioredoxin tags, expressed in E. coli (Arabidopsis thaliana, UniProt Q9ZNV9 1-154).
T3 construct: This is the form used in ITC; also called purified AHP1; Arabidopsis histidine phosphotransfer protein 1; not shown: thioredoxin tag and six-His tag from the vector PET32EK/LIC (Novagen)
T3 sequence (looked up): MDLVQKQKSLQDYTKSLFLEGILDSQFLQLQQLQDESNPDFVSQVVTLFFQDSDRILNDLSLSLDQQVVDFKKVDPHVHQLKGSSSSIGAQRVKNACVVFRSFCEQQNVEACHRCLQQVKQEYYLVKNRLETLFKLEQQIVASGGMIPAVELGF
The data set is described as follows: ITC; purified AHP1 injected into a cell containing purified TAP-HOG1. How it is done: C) Purification of TAP-HOG1 complex. […] D) SDS-polyacrylamide gel electrophoresis of recombinant AHP1 purification. AHP1 was expressed with six-His and thioredoxin-tags in *E. coli*. Lane 1 has total cell lysate and purified AHP1 with the tags is in lane 2. E) TAP-HOG1 and AHP1 interaction was performed with ITC.
as §1, with “µM” for “μM”

Data set [6] deals with S-adenosyl homocysteine hydrolase (SAHH) activity. The data set is described as follows: SAHH spectrophotometric assay. In kind it is biochemical, Arabidopsis thaliana. The conditions noted are these: purified protein.
Where [7] appears, read: ITC, control molecules, purified TAP-HOG1, read-out: KD (dissociation constant).

`Nc1ncnc2c1ncn2C[C@H](O)CO` [(S)-9-(2,3-dihydroxypropyl)adenine]: the “decrease of SAM:SAH ratio at which genome hypomethylation occurred” value in data set [1] was 300 folds. `NC(=O)c1ccc[n+]([C@@H]2O[C@H](COP(=O)([O-])OP(=O)(O)OC[C@H]3O[C@@H](n4cnc5c(N)ncnc54)[C@H](O)[C@@H]3O)[C@@H](O)[C@H]2O)c1` [NAD+]: the dissociation constant (Kd) (commonly a measure of binding affinity in units of concentration) at purified TAP-HOG1 [2] (setting [7]) worked out at 39500 nM. On to `Nc1ncnc2nc[nH]c12` [adenine], for which the Kd on purified TAP-HOG1 [2] (setting [7]) worked out at 2100 nM. Regarding `c1coc(CNc2ncnc3[nH]cnc23)c1` [kinetin], in data set [3], the “phenotype compared with control AS lines” value was “did not show any significant difference in phenotype”.

As for `O=C(Nc1ccccc1)Nc1cnns1` [thidiazuron], at purified TAP-HOG1 [2] (ITC, performed as with zeatin), the “binding to HOG1” value is recorded as “does not bind”.

With `C/C(=C\CNc1ncnc2[nH]cnc12)CO` [zeatin], the Kd at purified TAP-HOG1 [2] was in the range of 16.9 to 20.6 nM. Further, the “phenotype compared with control AS lines” value in data set [3] was “did not show any significant difference in phenotype”.

B1: AHP1: recombinant Arabidopsis histidine phosphotransfer protein 1 with six-HIS and thioredoxin tags, expressed in E. coli (protein)
chain: MDLVQKQKSLQDYTKSLFLEGILDSQFLQLQQLQDESNPDFVSQVVTLFFQDSDRILNDLSLSLDQQVVDFKKVDPHVHQLKGSSSSIGAQRVKNACVVFRSFCEQQNVEACHRCLQQVKQEYYLVKNRLETLFKLEQQIVASGGMIPAVELGF
modifications: left off: large carriers
notes: recombinant Arabidopsis histidine phosphotransfer protein 1 with six-HIS and thioredoxin tags, expressed in E. coli
With B1, in the data set with purified TAP-HOG1 [4], the Kd stood at 23.8 nM.

B2: purified TAP-HOG1 protein (HOG1 retaining the CBP portion of the TAP tag, 60 kDa) (receptor, not shown: small tags and cut ends)
chain: MALIVEKTSGGREYKVKDMSQADFGRLELELAEVEMPGLMACRTEFGPAQPFKGARITGSLHMTIQTAVLIETLTALGAEVRWCSCNIFSTQDHAAAAIARDSAAVFAWKGETLQEYWWCTERALDWGPGGGPDLIVDDGGDATLLIHEGVKAEEIFEKTGQVPDPTSTDNPEFQIVLSIIKEGLQVDPKKYHKMKGRLVGVSEETTTGVKRLYQMQESGALLFPAINVNDSVTKSKFDNLYGCRHSLPDGLMRATDVMIAGKVAVICGYGDVGKGCAAAMKTAGARVIVTEIDPICALQAMMEGLQVLTLEDVVSEADIFVTTTGNKDIIMVDHMRKMKNNAIVCNIGHFDNEIDMQGLETFPGVKRITIKPQTDRWVFPDTKSGIIVLAEGRLMNLGCATGHPSFVMSCSFTNQVIAQLELWNEKSSGKYEKKVYVLPKHLDEKVAALHLGKLGAKLTKLTKDQSDYVSIPIEGPYKPPHYRY
notes: Purified from transgenic Arabidopsis thaliana carrying 35S:TAP-HOG1, using the Prot A and CBP tags; After purification it keeps only the CBP portion of the tag (60 kDa; HOG1 alone would be 56 kDa); also called Homology-dependent gene silencing 1
In the case of B2, the Kd in data set [5] turned out to be 23.8 nM.

B3: TAP-HOG1: TAP-tagged HOG1 polypeptide (SEQ ID NO: 1) purified from transgenic Arabidopsis thaliana (protein, listed as Arabidopsis thaliana)
chain: MALIVEKTSGGREYKVKDMSQADFGRLELELAEVEMPGLMACRTEFGPAQPFKGARITGSLHMTIQTAVLIETLTALGAEVRWCSCNIFSTQDHAAAAIARDSAAVFAWKGETLQEYWWCTERALDWGPGGGPDLIVDDGGDATLLIHEGVKAEEIFEKTGQVPDPTSTDNPEFQIVLSIIKEGLQVDPKKYHKMKGRLVGVSEETTTGVKRLYQMQESGALLFPAINVNDSVTKSKFDNLYGCRHSLPDGLMRATDVMIAGKVAVICGYGDVGKGCAAAMKTAGARVIVTEIDPICALQAMMEGLQVLTLEDVVSEADIFVTTTGNKDIIMVDHMRKMKNNAIVCNIGHFDNEIDMQGLETFPGVKRITIKPQTDRWVFPDTKSGIIVLAEGRLMNLGCATGHPSFVMSCSFTNQVIAQLELWNEKSSGKYEKKVYVLPKHLDEKVAALHLGKLGAKLTKLTKDQSDYVSIPIEGPYKPPHYRY
modifications: TAP tag; HOG1 Arabidopsis thaliana
B3: the SAHH enzyme activity entry in data set [6] was “lacks measurable SAHH activity; also recorded: lacks SAHH enzyme activity”.
